± gives the expanded uncertainty stated by the source.
Legend:
[1] = 101.33 kPa, Liquid; for viscosity: Capillary tube (Ostwald / Ubbelohde) method
[2] = refractive index (Na D-line) (dimensionless); conditions: 101.33 kPa, Liquid, Standard Abbe refractometry
[3] = xn = mol fraction of the nth substance listed; conditions: 101 kPa, Liquid
[4] = refractive index (Na D-line) (dimensionless); xn = mol fraction of the nth substance listed; conditions: 101 kPa, Liquid, Standard Abbe refractometry

Cc1ccccc1C [1,2-dimethylbenzene]
Conditions	refractive index, [2]	viscosity, [1] [mPa·s]
303.15 K	1.5001 ± 0.0007	0.695 ± 0.014
313.15 K	1.4981 ± 0.0007	0.621 ± 0.014

[1], Pycnometric method
Conditions	mass density [kg/m3]
303.15 K	871.5 ± 0.9
313.15 K	863.3 ± 0.9

Cc1cccc(C)c1 [1,3-dimethylbenzene]
Conditions	refractive index, [2]	viscosity, [1] [mPa·s]
303.15 K	1.492 ± 0.0007	0.557 ± 0.013
313.15 K	1.4901 ± 0.0007	0.508 ± 0.013

[1], Pycnometric method
Conditions	mass density [kg/m3]
303.15 K	855.3 ± 0.8
313.15 K	847.1 ± 0.8

Cc1ccc(C)cc1 [1,4-dimethylbenzene]
Conditions	refractive index, [2]	viscosity, [1] [mPa·s]
303.15 K	1.4911 ± 0.0007	0.566 ± 0.014
313.15 K	1.4902 ± 0.0007	0.517 ± 0.013

[1], Pycnometric method
Conditions	mass density [kg/m3]
303.15 K	852.1 ± 0.8
313.15 K	843.5 ± 0.8

CC(=O)OCCC(C)C [3-methylbutyl ethanoate]
Conditions	refractive index, [2]	viscosity, [1] [mPa·s]
303.15 K	1.3959 ± 0.0006	0.741 ± 0.013
313.15 K	1.3945 ± 0.0006	0.649 ± 0.013

[1], Pycnometric method
Conditions	mass density [kg/m3]
303.15 K	862.3 ± 0.5
313.15 K	852.8 ± 0.5

CCc1ccccc1 [ethylbenzene]
Conditions	mass density, [1] [kg/m3]	refractive index, [2]	viscosity, [1] [mPa·s]
303.15 K	857.6 ± 3.5	1.491 ± 0.0006	0.597 ± 0.013
313.15 K	849.2 ± 3.9	1.4891 ± 0.0006	0.538 ± 0.013

COC(=O)c1ccccc1 [methyl benzoate]
Conditions	refractive index, [2]	viscosity, [1] [mPa·s]
303.15 K	1.5127 ± 0.0006	1.679 ± 0.017
313.15 K	1.5083 ± 0.0006	1.414 ± 0.016

[1], Pycnometric method
Conditions	mass density [kg/m3]
303.15 K	1078.8 ± 0.6
313.15 K	1069.2 ± 0.6

COC(=O)c1ccccc1 [methyl benzoate] + Cc1ccccc1C
Conditions	mass density, [3] [kg/m3]	refractive index, [4]	viscosity, [3] [mPa·s]
303.15 K, x1 = 0.0879	890.4 ± 4.1	1.5006 ± 0.0007	0.757 ± 0.016
303.15 K, x1 = 0.1997	911.4 ± 4.2	1.5007 ± 0.0007	0.842 ± 0.017
303.15 K, x1 = 0.3008	931.3 ± 4.3	1.501 ± 0.0006	0.908 ± 0.017
303.15 K, x1 = 0.3925	951.2 ± 4.3	1.5012 ± 0.0006	0.975 ± 0.018
303.15 K, x1 = 0.4928	970.9 ± 4.4	1.5016 ± 0.0006	1.06 ± 0.019
303.15 K, x1 = 0.5939	991.7 ± 4.4	1.5022 ± 0.0006	1.16 ± 0.019
303.15 K, x1 = 0.6852	1009.5 ± 4.5	1.5055 ± 0.0006	1.252 ± 0.02
303.15 K, x1 = 0.798	1031.6 ± 4.6	1.5083 ± 0.0006	1.395 ± 0.021
303.15 K, x1 = 0.8981	1052.1 ± 4.6	1.511 ± 0.0006	1.506 ± 0.022
303.15 K, x1 = 0.9485	1056.3 ± 4.6	1.5115 ± 0.0006	1.593 ± 0.022
313.15 K, x1 = 0.0879	882.3 ± 4.5	1.497 ± 0.0007	0.664 ± 0.016
313.15 K, x1 = 0.1997	902.1 ± 4.5	1.4971 ± 0.0007	0.72 ± 0.016
313.15 K, x1 = 0.3008	922.8 ± 4.6	1.498 ± 0.0006	0.785 ± 0.016
313.15 K, x1 = 0.3925	942.6 ± 4.6	1.4996 ± 0.0006	0.836 ± 0.017
313.15 K, x1 = 0.4928	962.4 ± 4.7	1.5002 ± 0.0006	0.91 ± 0.017
313.15 K, x1 = 0.5939	983 ± 4.8	1.5017 ± 0.0006	0.992 ± 0.018
313.15 K, x1 = 0.6852	1000.7 ± 4.8	1.5038 ± 0.0006	1.07 ± 0.018
313.15 K, x1 = 0.798	1022.5 ± 4.9	1.5062 ± 0.0006	1.171 ± 0.019
313.15 K, x1 = 0.8981	1042.8 ± 4.9	1.5085 ± 0.0006	1.29 ± 0.02
313.15 K, x1 = 0.9485	1046.7 ± 4.9	1.5101 ± 0.0006	1.351 ± 0.02
